SMILES strings stand for the structures. ≈ marks a conversion by molar mass, not a printed value.

Type in all cases: functional
Assay [1] concerns Mythimna separata. In words: Ratio of Flucycloxuron LC50 to compound LC50 for fourth-instar larval stage of Mythimna separata (Oriental armyworm) measured after 4 days.
Assay [2] has as its system Mythimna separata. As to the kind of experiment: Larvicidal activity against fourth-instar larval stage of Mythimna separata (Oriental armyworm) in compound-pretreated corn leaves assessed as mortality at 2.5 mg/l at 25 +/-1 degC after 4 days.
For assay [3], the system named is Mythimna separata. In words: Larvicidal activity against fourth-instar larval stage of Mythimna separata (Oriental armyworm) in compound-pretreated corn leaves assessed as mortality at 0.25 mg/l at 25 +/-1 degC after 4 days.
Assay [4] concerns Culex pipiens pallens. In words: Larvicidal activity against fourth-instar larval stage of Culex pipiens pallens (mosquito) assessed as mortality at 0.0025 mg/l at 25 +/-1 degC after 8 days. Conditions: 192 h.
Assay [5] concerns Mythimna separata. As to the kind of experiment: Larvicidal activity against fourth-instar larval stage of Mythimna separata (Oriental armyworm) in compound-pretreated corn leaves assessed as mortality at 1 mg/l at 25 +/-1 degC after 4 days.
The subject of assay [6] is Culex pipiens pallens. In words: Larvicidal activity against fourth-instar larval stage of Culex pipiens pallens (mosquito) assessed as mortality at 0.001 mg/l at 25 +/-1 degC after 8 days. Conditions: 192 h.
For assay [7], the system named is Culex pipiens pallens. In words: Larvicidal activity against fourth-instar larval stage of Culex pipiens pallens (mosquito) assessed as mortality at 0.1 mg/l at 25 +/-1 degC after 8 days. Conditions: 192 h.
Assay [8] relates to Culex pipiens pallens. As to the kind of experiment: Larvicidal activity against fourth-instar larval stage of Culex pipiens pallens (mosquito) assessed as mortality at 0.025 mg/l at 25 +/-1 degC after 8 days. Conditions: 192 h.
The test system of assay [9] is Mythimna separata. In words: Ratio of Hexaflumuron LC50 to compound LC50 for fourth-instar larval stage of Mythimna separata (Oriental armyworm) measured after 4 days.
Assay [10] has as its system Culex pipiens pallens. In words: Larvicidal activity against fourth-instar larval stage of Culex pipiens pallens (mosquito) assessed as mortality at 1 mg/l at 25 +/-1 degC after 8 days. As to conditions: 192 h.
Assay [11] concerns Culex pipiens pallens. As to the kind of experiment: Larvicidal activity against fourth-instar larval stage of Culex pipiens pallens (mosquito) assessed as mortality at 0.5 mg/l at 25 +/-1 degC after 8 days. Conditions: 192 h.
Assay [12] has as its system Culex pipiens pallens. In words: Larvicidal activity against fourth-instar larval stage of Culex pipiens pallens (mosquito) assessed as mortality at 0.05 mg/l at 25 +/-1 degC after 8 days. Conditions: 192 h.
Assay [13] concerns Culex pipiens pallens. As to the kind of experiment: Larvicidal activity against fourth-instar larval stage of Culex pipiens pallens (mosquito) assessed as mortality at 0.01 mg/l at 25 +/-1 degC after 8 days. As to conditions: 192 h.
Assay [14] relates to Culex pipiens pallens. As to the kind of experiment: Larvicidal activity against fourth-instar larval stage of Culex pipiens pallens (mosquito) assessed as mortality at 0.005 mg/l at 25 +/-1 degC after 8 days. As to conditions: 192 h.
Assay [15] concerns Culex pipiens pallens. As to the kind of experiment: Larvicidal activity against fourth-instar larval stage of Culex pipiens pallens (mosquito) assessed as mortality at 0.25 mg/l at 25 +/-1 degC after 8 days. As to conditions: 192 h.
Assay [16] deals with Cucumis sativus. In words: Growth regulation of Cucumis sativus (cucumber) seeds assessed as stimulation of radicle growth at 10 mg/l at 26 degC after 5 days.
Assay [17] deals with Mythimna separata. As to the kind of experiment: Larvicidal activity against fourth-instar larval stage of Mythimna separata (Oriental armyworm) in compound-pretreated corn leaves assessed as mortality at 25 +/-1 degC after 4 days.
Assay [18] concerns Mythimna separata. In words: Larvicidal activity against fourth-instar larval stage of Mythimna separata (Oriental armyworm) in compound-pretreated corn leaves assessed as mortality at 0.5 mg/l at 25 +/-1 degC after 4 days.
Assay [19] relates to Mythimna separata. In words: Larvicidal activity against fourth-instar larval stage of Mythimna separata (Oriental armyworm) in compound-pretreated corn leaves assessed as mortality at 10 mg/l at 25 +/-1 degC after 4 days.
For assay [20], the system named is Mythimna separata. As to the kind of experiment: Larvicidal activity against fourth-instar larval stage of Mythimna separata (Oriental armyworm) in compound-pretreated corn leaves assessed as mortality at 5 mg/l at 25 +/-1 degC after 4 days.
Assay [21] deals with Culex pipiens pallens. In words: Ratio of larvicidal activity of compound to larvicidal activity of Flucycloxuron for fourth-instar larval stage of Culex pipiens pallens (mosquito) measured after 8 days.
The subject of assay [22] is Mythimna separata. In words: Larvicidal activity against fourth-instar larval stage of Mythimna separata (Oriental armyworm) in compound-pretreated corn leaves assessed as mortality at 25 mg/l at 25 +/-1 degC after 4 days.
Assay [23] relates to Mythimna separata. In words: Larvicidal activity against fourth-instar larval stage of Mythimna separata (Oriental armyworm) in compound-pretreated corn leaves assessed as mortality at 200 mg/l at 25 +/-1 degC after 4 days.
For assay [24], the system named is Mythimna separata. As to the kind of experiment: Larvicidal activity against fourth-instar larval stage of Mythimna separata (Oriental armyworm) in compound-pretreated corn leaves assessed as mortality at 100 mg/l at 25 +/-1 degC after 4 days.
Assay [25] deals with Culex pipiens pallens. In words: Larvicidal activity against fourth-instar larval stage of Culex pipiens pallens (mosquito) assessed as mortality at 2 mg/l at 25 +/-1 degC after 8 days. As to conditions: 192 h.
The subject of assay [26] is Mythimna separata. As to the kind of experiment: Larvicidal activity against fourth-instar larval stage of Mythimna separata (Oriental armyworm) in compound-pretreated corn leaves assessed as mortality at 50 mg/l at 25 +/-1 degC after 4 days.

Broadly, the mortality is the share of the test organisms that died. One may read the LC50 as the concentration that kills 50% of the test population. `CC(C)O/N=C/c1ccc(NC(=O)NC(=O)c2c(F)cccc2F)cc1`: the results for the RatioLC50 in assay [1] and in assay [9] were 5 and 9.4, respectively. In addition, the mortality at 2.5 µg/mL in [2] was determined as 100%. Also, the mortality at 0.25 µg/mL came to 0% in assay [3] and 100% in assay [15]. Besides, in assay [4], the mortality at 0.0025 µg/mL amounted to 15%. The mortality at 1 µg/mL in assay [5] and in assay [10] was 100% each time. The mortality at 0.001 µg/mL in assay [6] turned out to be 0%. Further, the mortality at 0.1 µg/mL in assay [7] is 100%. The mortality at 0.025 µg/mL in assay [8] was 100%. Moreover, the results for the mortality at 0.5 µg/mL in assay [11] and in assay [18] were 100% and 50%, respectively. Besides, in assay [12], the mortality at 0.05 µg/mL is 100%. The mortality at 0.01 µg/mL in [13] was found to be 100%. Besides, the mortality at 0.005 µg/mL in assay [14] was 75%. The Activity in assay [16] was determined as 55%. In addition, the LC50 in assay [17] was 0.5 µg/mL (≈ 1.38 µM).

For `O=C(NC(=O)c1c(F)cccc1F)Nc1ccc(/C=N/OCC(F)(F)F)cc1`, the mortality at 10 µg/mL in assay [19] is 100%. The mortality at 2.5 µg/mL in assay [2] turned out to be 100%. For the same molecule, the mortality at 0.25 µg/mL in assay [3] came to 0%. Besides, in [4], the mortality at 0.0025 µg/mL was found to be 70%. Also, in assay [20], the mortality at 5 µg/mL came to 100%. Further, the mortality at 1 µg/mL in assay [5] was 90%. Moreover, in assay [21], the RatioLC50 is recorded as 10. Besides, the mortality at 0.001 µg/mL in assay [6] was determined as 10%. Besides, the mortality at 0.1 µg/mL in [7] turned out to be 100%. Moreover, the mortality at 0.025 µg/mL in assay [8] was 100%. Moreover, the mortality at 0.05 µg/mL in assay [12] stood at 100%. Also, the mortality at 0.01 µg/mL in assay [13] stood at 100%. Besides, the mortality at 0.005 µg/mL in assay [14] amounted to 100%. Moreover, the mortality at 25 µg/mL in [22] came to 100%. In [18], the mortality at 0.5 µg/mL is 60%.

For the molecule `O=C(NC(=O)c1c(F)cccc1F)Nc1cc(Cl)c(Oc2ncc(C(F)(F)F)cc2Cl)c(Cl)c1` [CHLORFLUAZURON], the LC50 in assay [17] amounted to 1.03 µg/mL (≈ 1.91 µM).

Regarding `O=C(NC(=O)c1c(Cl)cccc1Cl)Nc1ccc(Cl)cc1` [DICHLORBENZURON], in assay [17], the LC50 amounted to 1.82 µg/mL (≈ 5.3 µM).

As for `O=Cc1ccc(NC(=O)NC(=O)c2c(F)cccc2F)cc1`, the mortality at 200 µg/mL in assay [23] came out at 0%. In addition, in [24], the mortality at 100 µg/mL is 0%. In addition, the mortality at 1 µg/mL in [10] was found to be 80%. The mortality at 0.5 µg/mL in assay [11] was found to be 0%. Further, the mortality at 2 µg/mL in assay [25] came to 100%.

With `CCCCCO/N=C/c1ccc(NC(=O)NC(=O)c2c(F)cccc2F)cc1`, the mortality at 10 µg/mL in assay [19] worked out at 0%. In addition, the mortality at 0.1 µg/mL in assay [7] is 15%. Also, the mortality at 50 µg/mL in assay [26] was determined as 90%. Further, in assay [10], the mortality at 1 µg/mL was found to be 100%. In addition, the mortality at 0.5 µg/mL in assay [11] stood at 90%. Besides, the mortality at 0.05 µg/mL in assay [12] is 0%. Also, the mortality at 25 µg/mL in assay [22] was determined as 20%. Also, in assay [15], the mortality at 0.25 µg/mL is 80%. Moreover, the mortality at 2 µg/mL in assay [25] was found to be 100%. Also, in assay [16], the Activity was 50%.

For `O=C(NC(=O)c1ccccc1Cl)Nc1ccc(Cl)cc1` [CHLORBENZURON], the LC50 in assay [17] is 2.29 µg/mL (≈ 7.41 µM).

For the origin of these results see ChEMBL document CHEMBL3045590, “Design, synthesis, bioactivity, and structure-activity relationship (SAR) studies of novel benzoylphenylureas containing oxime ether group” (2008).
